According to US6071919A, “Zwitterionic compositions and methods as biological response modifiers” (priority 1998, dated 2000):
Read-outs that look alike come from different tables or passages of the source. Where a SMILES comes first, the peptide text is derived from it.

Tests used:
[1] = cited from earlier work; for αpKa /° C.: change of pKa per ° C.
[2] = ADA: data of Schwarzenbach et al. (1955); cited from earlier work
[3] = ADA: data of Schwarzenbach et al. (1955); cited from earlier work; remark: listed apart in the source
[4] = ADA: data of Schwarzenbach et al. (1955); cited from earlier work; remark: listed apart in the source
[5] = cited from earlier work
[6] = ADA: data of Schwarzenbach et al. (1955); cited from earlier work; remark: listed apart in the source
[7] = test system: cancer tumors; test: Macrophage infiltration of tumors; assay type: in vivo, dogs; conditions: dogs
From the text: (§1) The amphoteric zwitterion compounds may be employed as active ingredients with other active ingredients, as well as other components and carriers typically used in pharmaceutical compositions; such as, but not limited to: buffers, stabilizers, dyes, antioxidants, dispersing agents, fillers, surfactants, silicones, bulking agents, pigments, salts, human or animal (natural or synthetic) cells and cellular components, antibiotics, drugs, vitamins, amino acids, proteins, serum and various other compounds and combinations thereof in varying amounts.

[8] = test system: giant platelets and histiocytes; test: Giant platelets and histiocytes on peripheral smear; assay type: in vivo, animals; conditions: blood / peripheral smear
From the text: as §1

[9] = as the hydrochloride (footnote b)

Compound	αpKa /° C. [1]	Metal-Buffer Binding Constants Log KM, Mg^2+ [2]	Metal-Buffer Binding Constants Log KM, Ca^2+ [3]	Metal-Buffer Binding Constants Log KM, Mn^2+ [4]	Saturated Solution at 0° [5] [M]	pKa at 20° [1]	Metal-Buffer Binding Constants Log KM, Cu^2+ [6]	Saturated Solution at 0° [5, 9] [M]	macrophage infiltration of cancer tumors [7]	giant platelets and histiocytes [8]
O=C(O)CN(CCO)CCO [Bicine]	-0.018	1.5	2.8	–	–	–	–	–	–	–
NC(CO)(CO)CO [Tris]	–	Negl	Negl	Negl	2.4	–	–	–	–	–
NC(=O)CNCC(=O)O [Acetamidoglycine, Acetamido-glycine]	–	–	–	–	–	~7.7	–	–	–	–
C[N+](C)(C)CCN [Cholamine chloride]	-0.027	Negl	Negl	Negl	–	7.1	Negl	4.2	–	–
NCC(N)=O [Glycinamide]	-0.029	–	–	–	–	8.2	–	4.6	–	–
O=S(=O)(O)CCN(CCO)CCO [BES]	–	Negl	Negl	Negl	–	7.15	3.5	–	–	–
O=S(=O)(O)CCNC(CO)(CO)CO [TES]	–	Negl	Negl	Negl	2.6	7.5	3.2	–	–	–
NCC(=O)NCC(=O)O [Glycylglycine] (H-Gly-Gly-OH)	–	–	–	1.7	–	8.4	5.8	–	–	–
O=S(=O)(O)CCN1CCN(CCS(=O)(=O)O)CC1 [PIPES]	–	Negl	Negl	Negl	–	–	Negl	–	macrophage infiltration of cancer tumors in dogs	production of giant platelets and histiocytes
NC(=O)CNCCS(=O)(=O)O [ACES]	-0.020	–	–	Negl	0.22	6.9	4.6	–	–	–
O=S(=O)(O)CCN1CCOCC1 [MES]	–	–	–	–	–	–	Negl	–	–	–
NC(=O)CN(CC(=O)O)CC(=O)O [ADA]	–	2.5	4.0	4.9	–	6.6	9.7	–	–	–
O=C(O)CNC(CO)(CO)CO [Tricine]	–	1.2	2.4	–	0.8	–	7.3	–	–	–
